The values that follow come from patent publication US3950354A, “Imidazolylacetic acid amides” (Bayer Aktiengesellschaft, priority 1972, dated 1976).

The subject of assay [1] is Trichophyton mentagrophytes. As to the kind of experiment: Anti-mycotic spectrum of action in vitro, series dilution test (Trichophyton mentagrophytes). The format is cell-based. The settings on record: read-out: Minimum inhibitory concentration. The procedure:
(§1) Determination of the anti-mycotic spectrum of action in vitro, by the series dilution test
(§2) The nutrient substrates used were Sabouraud's milieu d'epreuve for dermatophytes and moulds, and meat broth-glucose bouillon for blastomycetes and biphase fungi.
(§3) The incubation temperature was 28°C and the incubation time was 24 to 96 hours.

Assay [2] concerns Candida albicans. Put plainly: Anti-mycotic spectrum of action in vitro, series dilution test (Candida albicans). The format is cell-based. The settings on record: read-out: Minimum inhibitory concentration. The procedure: as §1, §2, §3
A further assay has as its system Penicillium commune. Put plainly: Anti-mycotic spectrum of action in vitro, series dilution test (Penicillium commune). It is filed as cell-based. The settings on record: read-out: Minimum inhibitory concentration. The procedure:
as §1, §2, §3

The subject of assay [3] is Candida albicans. Put plainly: Candidosis of mice. The settings on record: oral, 50, 75, 100 and 150 mg/kg, one hour before and 7 hours after infection; 1 to 2 × 10^6 Candida cells intravenously. The format is in vivo, Mice of type SPF-CF1. The procedure:
Mice of type SPF-CF1 were intravenously infected with 1 to 2 × 10^6 Candida cells which were suspended in physiological sodium chloride solution.
One hour before and 7 hours after infection, the animals were treated orally with 50, 75, 100 and 150 mg of the compounds according to the invention/kg of body weight. Untreated control animals died of the infection, 3 to 6 days after infection.

A further assay concerns Aspergillus niger. As to the kind of experiment: Anti-mycotic spectrum of action in vitro, series dilution test (Aspergillus niger). It is filed as cell-based. The settings on record: * = 90% inhibition of growth, read-out: Minimum inhibitory concentration. The procedure:
as §1, §2, §3

In a further assay the test system is Microsporon felineum. As to the kind of experiment: Anti-mycotic spectrum of action in vitro, series dilution test (Microsporon felineum). The format is cell-based. The conditions noted are these: read-out: Minimum inhibitory concentration. The procedure:
as §1, §2, §3

Setting [4] is: n.s. = no serum added, Sabouraud's milieu d'epreuve, 28°C, 24 to 96 hours.
Where [5] appears, read: n.s. = no serum added, meat broth-glucose bouillon, 28°C, 24 to 96 hours.
[6] abbreviates: n.s. = no serum added, * = 90% inhibition of growth.
Setting [7] is: n.s. = no serum added, + = 50% inhibition of growth.

Values after ≈ are worked out from the molar mass of the structure shown. Like-named read-outs stand apart in the source and are kept apart here.

Turning to `O=C(Nc1cccc(C(F)(F)F)c1)C(c1ccccc1)(c1ccccc1)n1ccnc1` [Example 4, ω,ω-diphenyl-ω-imidazolyl-(1)-acetic acid 3-trifluoromethylanilide], the MIC in assay [1] (setting [4]) is 64 µg/mL (≈ 152 µM); in assay [1] (w.s. = with 30% serum added), 64 µg/mL (≈ 152 µM); with Candida albicans [2] (setting [5]) it was above 64 µg/mL; in the assay on Candida albicans [2] (w.s. = with 30% serum added) it was above 64 µg/mL; with Penicillium commune (28°C, 24 to 96 hours), above 64 µg/mL.

As for `O=C(NC1CCCCC1)C(c1ccccc1)(c1ccccc1)n1ccnc1` [Example 7, ω,ω-diphenyl-ω-imidazolyl-(1)-acetic acid cyclohexylamide], the MIC is 32 µg/mL (≈ 89 µM) in assay [1] (setting [6]); above 64 µg/mL in assay [1] (w.s. = with 30% serum added); 4 µg/mL (≈ 11.1 µM) in the assay on Candida albicans [2] (setting [6]); 8 µg/mL (≈ 22.3 µM) with Candida albicans [2] (w.s. = with 30% serum added); above 64 µg/mL in the assay on Penicillium commune (28°C, 24 to 96 hours). Moreover, in the assay with Candida albicans [3], the “Action in the case of Candida albicans (survivals on 6th day after infection)” value (“Action in the case of Candida albicans” below) was “++ (60 to 80% survivials on 6th day after infection)”.

For the compound `O=C(N1CCS(=O)(=O)CC1c1ccccc1)C(c1ccc(Cl)cc1)(c1ccc(Cl)cc1)n1ccnc1` (stereo not drawn) [Example 11, 4-[ω,ω-di-(4-chlorophenyl)-ω-imidazolyl-(1)-methylcarbonyl]-3-phenyl-1,4-thiazine dioxide], the MIC in assay [1] (setting [4]) is 32 µg/mL (≈ 59.2 µM); in assay [1] (w.s. = with 30% serum added), 32 µg/mL (≈ 59.2 µM); with Candida albicans [2] (setting [5]) it was above 64 µg/mL; in the assay on Candida albicans [2] (w.s. = with 30% serum added) it was above 64 µg/mL; with Penicillium commune (28°C, 24 to 96 hours), above 64 µg/mL.

Consider `O=C(N1CCN(c2ccccc2Cl)CC1)C(c1ccccc1)(c1ccccc1)n1ccnc1` [Example 13, 4-[ω,ω-diphenyl-ω-imidazolyl-(1)-methylcarbonyl]-1-o-chlorophenyl-piperazine], for which the MIC was 10 µg/mL (≈ 21.9 µM) in assay [1] (setting [4]); 40 µg/mL (≈ 87.5 µM) in assay [1] (w.s. = with 30% serum added); above 100 µg/mL with Candida albicans [2] (setting [5]); above 100 µg/mL in the assay on Penicillium commune (28°C, 24 to 96 hours); 1 µg/mL (≈ 2.19 µM) in the assay on Aspergillus niger (n.s. = no serum added); 100 µg/mL (≈ 219 µM) in the assay on Aspergillus niger (w.s. = with 30% serum added). The MIC with Microsporon felineum (28°C, 24 to 96 hours) came to 100 µg/mL (≈ 219 µM).

Take `Cc1cc(Cl)ccc1NC(=O)C(c1ccccc1)(c1ccccc1)n1ccnc1` [Example 5, ω,ω-diphenyl-ω-imidazolyl-(1)-acetic acid 2-methyl-4-chloro-anilide]: the MIC was 32 µg/mL (≈ 79.6 µM) in assay [1] (setting [4]); 32 µg/mL (≈ 79.6 µM) in assay [1] (w.s. = with 30% serum added); 8 µg/mL in the assay on Candida albicans [2] (setting [7]); 64 µg/mL with Candida albicans [2] (w.s. = with 30% serum added, + = 50% inhibition of growth); above 64 µg/mL in the assay on Penicillium commune (28°C, 24 to 96 hours).

Regarding `O=C(Nc1ccc(Cl)cc1Cl)C(c1ccccc1)(c1ccccc1)n1ccnc1` [Example 6, ω,ω-diphenyl-ω-imidazolyl-(1)-acetic acid 2,4-dichloroanilide], the MIC was found to be 1 µg/mL (≈ 2.37 µM) in assay [1] (setting [6]); 8 µg/mL (≈ 18.9 µM) in assay [1] (w.s. = with 30% serum added); 1 µg/mL (≈ 2.37 µM) with Candida albicans [2] (setting [6]); 32 µg/mL (≈ 75.8 µM) in the assay on Candida albicans [2] (w.s. = with 30% serum added, * = 90% inhibition of growth); 64 µg/mL (≈ 152 µM) in the assay on Penicillium commune (* = 90% inhibition of growth); 4 µg/mL (≈ 9.47 µM) in the assay with Aspergillus niger (n.s. = no serum added). For the same compound, the MIC in the assay with Aspergillus niger (w.s. = with 30% serum added) was determined as 8 µg/mL (≈ 18.9 µM); with Microsporon felineum (* = 90% inhibition of growth), 4 µg/mL (≈ 9.47 µM).

For the compound `CCOC(=O)N1CCN(C(=O)C(c2ccccc2)(c2ccccc2)n2ccnc2)CC1` [Example 12, 4-[ω,ω-diphenyl-ω-imidazolyl-(1)-methylcarbonyl]-1-ethoxycarbonyl-piperazine], the MIC is 64 µg/mL in assay [1] (setting [7]); 64 µg/mL in the assay on Candida albicans [2] (setting [7]); above 64 µg/mL in the assay with Candida albicans [2] (w.s. = with 30% serum added); above 64 µg/mL in the assay on Penicillium commune (28°C, 24 to 96 hours). The “Action in the case of Candida albicans” value in the assay on Candida albicans [3] is listed as “+ (50% survivals on 6th day after infection)”.

Regarding `O=C(N1CCS(=O)(=O)CC1)C(c1ccc(Cl)cc1)(c1ccc(Cl)cc1)n1ccnc1` [Example 2, [ω,ω-di(4-chlorophenyl)-ω-imidazolyl-(1)-methylcarbonyl-(4)]-1,4-thiazine dioxide], the MIC in assay [1] (setting [4]) is 100 µg/mL (≈ 215 µM); with Candida albicans [2] (setting [5]), above 100 µg/mL; in the assay with Penicillium commune (28°C, 24 to 96 hours) it was above 100 µg/mL. The “Action in the case of Candida albicans” value in the assay with Candida albicans [3] is “+ (50% survivals on 6th day after infection)”.
